pIC50: −log10 of the molar value.
How the values were obtained:
HeLa = assay: Cytotoxicity against human HeLa cells assessed as inhibition of cell viability by MTT assay; assay type: functional, cell-based
A549 = assay: Cytotoxicity against human A549 cells assessed as inhibition of cell viability by MTT assay; assay type: functional, cell-based

SMILES	pIC50 (HeLa)	pIC50 (A549)
CN1C(=O)[C@]2(Cc3c[nH]c4ccccc34)SSSS[C@@]1(CO)C(=O)N2C	5.72	5.66
CNC(=O)[C@@]12C[C@]3(n4cc(C[C@@]56SSSS[C@@](CO)(C(=O)N5C)N(C)C6=O)c5ccccc54)c4ccccc4N[C@@H]3N1C(=O)C(=O)N[C@H]2C	5.80	5.72
CS[C@@]12Cc3c([nH]c4ccccc34)[C@@](CO)(NC1=O)C(=O)N2	4.60	4.60
CS[C@@]1(CO)C(=O)N/C(=C\c2c[nH]c3ccccc23)C(=O)N1C	4.52	4.52
CN1C(=O)[C@]2(Cc3cn([C@]45C[C@@]67SS[C@@](CO)(C(=O)N6[C@H]4Nc4ccccc45)N(C)C7=O)c4ccccc34)SS[C@@]1(CO)C(=O)N2C [CHETOMIN]	5.62	5.46
CS[C@]1(CO)NC(=O)[C@](Cc2c[nH]c3ccccc23)(SC)NC1=O [CHETOSEMINUDIN C]	4.48	4.52
